Measured values from US20130281506A1, “COMBINATION OF A NON-STEROIDAL ANTI-INFLAMMATORY DRUG WITH AN ANTI-HISTAMINIC DRUG INTENDED FOR OPHTHALMIC USE” (ALLERGAN, INC., priority 2012, published 2013).
Structures can show the parent of a compound that is named as a salt.

Legend:
[1] = test system: seasonal allergic conjunctivitis and rhinoconjunctivitis; details: fourth week of treatment; p=0.03; cited from earlier work
[2] = test system: adult patients with seasonal allergic conjunctivitis; assay: Same clinical study: safety, tolerability and acceptability; format: in vivo, human; details: mild transient, no treatment required; observed immediately after instillation of eye drop
Text: The patients administered one drop twice daily in each eye for twenty-one days during three weeks. The patients received study medications as well as comparator drug for the entire period. There were five scheduled visits, with screening periods of thirty days and a treatment period of twenty-one days as per protocol. At the end of each visit physicians also rated tolerance and the patient rated acceptability.
At the end of the each visit physicians rated tolerance as Excellent (No adverse drug reactions), Good (Mild adverse reaction not requiring other treatment or necessitating drug withdrawal), Fair (Adverse reactions requiring treatment without hospitalization or necessitating drug withdrawal and Poor (Severe or serious reaction requiring hospitalization and withdrawal of drug) and the patient rated acceptability as Good (No untoward incidence), Fair (Mild adverse reaction not interfering day to day activities) and Poor (Adverse reactions affecting regular day to day activities).
The safety of the combination of olopatadine-ketorolac was compared with olopatadin. The safety assessment parameters included the number of patients having adverse events, the types of adverse events, and the number of unexpected, severe or serious adverse events in the two arms.

[3] = test system: seasonal allergic conjunctivitis; assay: Randomized, multi-centric, open label clinical study: efficacy on signs and symptoms (itching, hyperemia, chemosis, mucous discharge); format: in vivo, human; details: for mean chemosis score / mean cilliary hyperemia score / mean conjunctival hyperemia score / mean episcleral hyperemia score / mean itching score: score 0-4
Text: A randomized, multi-centric geographically, open label study to compare the safety and efficacy of the combination of olopatadine hydrochloride 0.1% and ketorolac tromethamine 0.4% w/v ophthalmic solution with olopatadine hydrochloride 0.1% w/v used twice daily for three weeks in adult patients with seasonal allergic conjunctivitis, was completed. The primary objective of this randomized, multi-centric geographically diverse study was to compare the safety and efficacy of the combination of olopatadine and ketorolac with olopatadine in seasonal allergic conjunctivitis. A combination of olopatadine hydrochloride 0.1% w/v and ketorolac tromethamine 0.4% w/v was compared with olopatadine hydrochloride 0.1% w/v alone in the treatment of patients with seasonal allergic conjunctivitis. The test drug was the combination of olopatadine hydrochloride with ketorolac tromethamine compared to olopatadine hydrochloride 0.1% w/v, as three commercially available brands on the market: Winolap®, Opat® and Olo®. These three commercially available brands, as the comparator drug, were provided to the investigators. Any of the three brands of the comparator drug were prescribed by the investigator to the patients per their choice of availability and cost. The patients administered one drop twice daily in each eye for twenty-one days during three weeks. The patients received study medications as well as comparator drug for the entire period. There were five scheduled visits, with screening periods of thirty days and a treatment period of twenty-one days as per protocol. At the end of each visit physicians also rated tolerance and the patient rated acceptability. The efficacy parameters like itching, hyperemia (cilliary, conjunctival, episcleral), chemosis and mucus discharge were compared between groups and scored. The efficacy of the medications was evaluated by comparing the reduction in efficacy parameters, signs and symptoms of allergic conjunctivitis between the treatment groups, based on the twenty-one day period. The efficacy of the study medications was evaluated by comparing the reduction in signs and symptoms of allergic conjunctivitis between the treatment groups. Reduction in the signs and symptoms of allergic conjunctivitis was based on evaluation of efficacy parameters till the end of twenty-one days. For the improvement of allergic conjunctivitis, symptoms like itching, hyperemia, chemosis and mucous discharge were used. The symptoms of allergic conjunctivitis like itching, hyperemia and chemosis were scored as 0, 1, 2, 3 and 4 and mucous discharge was graded as absent or present. [table] Interpretation: •Minimum score: 0; •Maximum score: 4; the higher the score the more severe will be the symptoms of allergic conjunctivitis. In the report, each symptom is graded based on the severity. Efficacy evaluation has been done for first 100 completed cases. The efficacy parameters like itching, hyperemia (cilliary, conjunctival, episcleral), chemosis and mucus discharge were compared between groups.

[4] = visit 3, no statistically significant difference

## CN(C)CC/C=C1/c2ccccc2COc2ccc(CC(=O)O)cc21 [olopatadine, olopatadine hydrochloride]
[1]
  chemosis compared to placebo: significant decrease
[2]
  number of patients experiencing an adverse event: three
[3]; baseline
  mean chemosis score: 1.5±0.99
  mean cilliary hyperemia score: 0.94±0.91
  mean conjunctival hyperemia score: 2.28±0.83
  mean episcleral hyperemia score: 0.84±0.79
[3]; baseline, one drop twice daily in each eye
  mean itching score: 3±0.67
[3]; final scheduled visit
  complaints of mucus discharge: all the enrolled patients were free from the complaints of mucus discharge
[3]; visit 2
  mean chemosis score: 1.46±0.95
  mean cilliary hyperemia score: 0.94±0.91
  mean conjunctival hyperemia score: 2.2±0.84
  mean episcleral hyperemia score: 0.84±0.79
[3]; visit 3 (first week), p=0.012 between groups
  mean itching score: 2±0.60
[3]; visit 3
  mean cilliary hyperemia score: 0.62±0.66
[3]; [4]
  mean chemosis score: 0.92±0.72
  mean conjunctival hyperemia score: 1.38±0.86
[3]; visit 3, p=0.43 printed
  mean episcleral hyperemia score: 0.62±0.63
[3]; visit 4 (second week), p=0.009 between groups
  mean itching score: 1.28±0.67
[3]; visit 4 (second week), p=0.02 between groups
  mean conjunctival hyperemia score: 0.8±0.60
[3]; visit 4 (second week), p=0.029 between groups
  mean chemosis score: 0.54±0.57
[3]; visit 4
  mean episcleral hyperemia score: 0.36±0.56
[3]; visit 4, p=0.06 between groups
  mean cilliary hyperemia score: 0.28±0.49
[3]; visit 5 (third week), p=0.00004 between groups
  mean chemosis score: 0.3±0.52
[3]; visit 5 (third week), p=0.00009 between groups
  mean itching score: 0.78±0.58
[3]; visit 5 (third week), p=0.0003 between groups
  mean conjunctival hyperemia score: 0.5±0.54
[3]; visit 5
  mean episcleral hyperemia score: 0.18±0.38
[3]; visit 5, p=0.52 between groups
  mean cilliary hyperemia score: 0.08±0.34
